Patent publication US12435080B2, “sGC stimulators” (Tisento Therapeutics Inc., priority 2016, dated 2025)

Target: T1, sGC enzyme (Homo sapiens, UniProt Q02108+Q02153)
T1 construct: incorporated into these cells detect cGMP formed by the compounds stimulating the sGC enzyme; host or cells: HEK293 cells stably expressing GloSensor 40F cGMP biosensor
T1 sequence (Q02153 1-619): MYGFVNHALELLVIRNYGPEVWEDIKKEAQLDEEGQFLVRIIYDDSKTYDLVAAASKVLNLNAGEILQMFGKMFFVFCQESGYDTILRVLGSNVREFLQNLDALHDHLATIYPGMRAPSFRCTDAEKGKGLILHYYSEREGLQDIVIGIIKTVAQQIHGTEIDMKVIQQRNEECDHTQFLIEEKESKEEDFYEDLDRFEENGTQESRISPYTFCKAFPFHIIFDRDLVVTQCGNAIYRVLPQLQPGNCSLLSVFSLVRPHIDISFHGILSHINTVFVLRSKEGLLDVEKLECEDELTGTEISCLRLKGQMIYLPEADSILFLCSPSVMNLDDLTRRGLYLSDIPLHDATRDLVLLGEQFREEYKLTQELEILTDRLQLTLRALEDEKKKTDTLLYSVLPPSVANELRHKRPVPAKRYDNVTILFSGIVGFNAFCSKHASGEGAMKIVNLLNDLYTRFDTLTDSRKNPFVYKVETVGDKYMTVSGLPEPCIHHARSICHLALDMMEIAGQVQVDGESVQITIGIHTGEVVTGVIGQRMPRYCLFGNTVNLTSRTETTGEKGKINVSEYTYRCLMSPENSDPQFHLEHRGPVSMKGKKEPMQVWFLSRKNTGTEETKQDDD
T1 sequence (Q02108 1-690): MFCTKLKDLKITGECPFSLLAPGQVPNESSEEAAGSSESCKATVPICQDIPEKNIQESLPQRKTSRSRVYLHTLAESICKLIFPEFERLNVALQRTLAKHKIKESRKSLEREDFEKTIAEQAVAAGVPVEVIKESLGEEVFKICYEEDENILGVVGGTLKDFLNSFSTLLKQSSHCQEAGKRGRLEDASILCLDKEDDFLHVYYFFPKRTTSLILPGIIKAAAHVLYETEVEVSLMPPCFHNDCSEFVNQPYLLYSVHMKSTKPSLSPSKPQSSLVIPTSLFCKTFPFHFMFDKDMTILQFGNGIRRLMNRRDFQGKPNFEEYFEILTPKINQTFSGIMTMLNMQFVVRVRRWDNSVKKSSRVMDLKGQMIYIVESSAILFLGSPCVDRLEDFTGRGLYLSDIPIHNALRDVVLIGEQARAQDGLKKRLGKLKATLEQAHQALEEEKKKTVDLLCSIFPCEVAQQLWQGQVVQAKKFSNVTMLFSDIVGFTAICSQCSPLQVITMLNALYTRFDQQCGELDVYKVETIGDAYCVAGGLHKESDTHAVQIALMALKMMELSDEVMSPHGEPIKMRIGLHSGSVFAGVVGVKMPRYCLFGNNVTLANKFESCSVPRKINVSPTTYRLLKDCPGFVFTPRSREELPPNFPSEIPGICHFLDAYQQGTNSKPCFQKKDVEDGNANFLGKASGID
Assay: cGMP GloSensor cell-based assay, 384-well format
Conditions: HEK293 cells expressing GloSensor 40F cGMP; 10 μM DETA-NONOate; normalized to 30 μM Compound Y; compounds in Table IA; read-out: Glo-sensor AbsEC50
Excerpt: Human embryonic kidney cells (HEK293) cells expressing GloSensor™ 40F cGMP (Part No: CS182801, Promega) were used to evaluate the activity of test compounds. The luminescent biosensors (engineered luciferase) that were incorporated into these cells detect cGMP formed by the compounds stimulating the sGC enzyme and emit luminescence.
cGMP GloSensor cells were maintained in Dulbecco's Modification of Eagle's Medium (DMEM) supplemented with fetal bovine serum (FBS, 10% final) and hygromycine (200 ug/ml). […] Cells were incubated overnight at 37° C. in a humidified chamber with 5% CO2. The next day, medium was removed and cells were replaced with 40 ul/well of GloSensor™, 2 mM (Promega Cat No E1291). Cells were treated for 90 minutes at 25° C. to allow the substrate to equilibrate in the cells. […] For endpoint SAR screening, data were collected after 55 min incubation at room temperature.
Data were fit using a 4-parameter fit (log(agonist) vs. response—variable slope) using GraphPad Prism Software v.5. n=2 for all compounds. […] Compounds failing to elicit a minimum response of 50% are reported as >30 μM or ND.

EC50 [nM] | SMILES
> 1000 | Fc1ccccc1Cn1nc(-c2nc(OCC(F)(F)F)n[nH]2)c2cccnc21 [Compound I-83, 1-(2-Fluorobenzyl)-3-(3-(2,2,2-trifluoroethoxy)-1H-1,2,4-triazol-5-yl)-1H-pyrazolo[3,4-b]pyridine]
100 to 1000 | Nc1n[nH]c(-c2nn(Cc3ccccc3F)c3ncccc23)n1 [Compound I-84, 5-(1-(2-fluorobenzyl)-1H-pyrazolo[3,4-b]pyridin-3-yl)-1H-1,2,4-triazol-3-amine]
< 100 | Cc1ccc2c(-c3nc(C(F)(F)F)n[nH]3)nn(Cc3cccc(F)c3F)c2n1 [Compound I-85, 1-(2,3-Difluorobenzyl)-6-methyl-3-(3-(trifluoromethyl)-1H-1,2,4-triazol-5-yl)-1H-pyrazolo[3,4-b]pyridine]
100 to 1000 | CC1(c2n[nH]c(-c3nn(Cc4ccccc4F)c4ncccc34)n2)CC1(F)F (stereo not drawn) [Compound I-87, 3-(3-(2,2-Difluoro-1-methylcyclopropyl)-1H-1,2,4-triazol-5-yl)-1-(2-fluorobenzyl)-1H-pyrazolo[3,4-b]pyridine]
> 1000 | Fc1ccccc1Cn1nc(-c2nc(N3CC(F)(F)C3)n[nH]2)c2cccnc21 [Compound I-88, 3-(3-(3,3-difluoroazetidin-1-yl)-1H-1,2,4-triazol-5-yl)-1-(2-fluorobenzyl)-1H-pyrazolo[3,4-b]pyridine]
< 100 | Fc1ccccc1Cn1nc(-c2nc(NCCC(F)(F)F)n[nH]2)c2cccnc21 [Compound I-89]
100 to 1000 | CN(C)c1n[nH]c(-c2nn(Cc3ccccc3F)c3ncccc23)n1 [Compound I-90]
< 100 | [2H]C([2H])([2H])c1n[nH]c(-c2nn(Cc3ccccc3F)c3ncccc23)n1 [Compound I-91, 1-(2-Fluorobenzyl)-3-(3-(methyl-d3)-1H-1,2,4-triazol-5-yl)-1H-pyrazolo[3,4-b]pyridine]
100 to 1000 | CC(C)(O)c1n[nH]c(-c2nn(Cc3ccccc3F)c3ncccc23)n1 [Compound I-94, 2-(5-(1-(2-fluorobenzyl)-1H-pyrazolo[3,4-b]pyridin-3-yl)-1H-1,2,4-triazol-3-yl)propan-2-ol]
100 to 1000 | Fc1ccccc1Cn1nc(-c2nc(C3CN(CC(F)(F)F)C3)n[nH]2)c2cccnc21 [Compound I-95, 1-(2-Fluorobenzyl)-3-(3-(1-(2,2,2-trifluoroethyl)azetidin-3-yl)-1H-1,2,4-triazol-5-yl)-1H-pyrazolo[3,4-b]pyridine]
100 to 1000 | FCCN1CC(c2n[nH]c(-c3nn(Cc4ccccc4F)c4ncccc34)n2)C1 [Compound I-97, 1-(2-Fluorobenzyl)-3-(3-(1-(2-fluoroethyl)azetidin-3-yl)-1H-1,2,4-triazol-5-yl)-1H-pyrazolo[3,4-b]pyridine]
> 1000 | Fc1ccccc1Cn1nc(-c2nc(C(F)(F)F)n[nH]2)c2nccnc21 [Compound I-98, 1-(2-Fluorobenzyl)-3-(3-(trifluoromethyl)-1H-1,2,4-triazol-5-yl)-1H-pyrazolo[3,4-b]pyrazine]
100 to 1000 | Fc1ccccc1Cn1nc(-c2nc(Cn3ccnc3)n[nH]2)c2cccnc21 [Compound I-99, 3-(3-((1H-imidazol-1-yl)methyl)-1H-1,2,4-triazol-5-yl)-1-(2-fluorobenzyl)-1H-pyrazolo[3,4-b]pyridine]
100 to 1000 | Fc1ccccc1Cn1nc(-c2nc(C(F)(F)F)n[nH]2)c2ccnnc21 [Compound I-100, 1-(2-Fluorobenzyl)-3-(3-(trifluoromethyl)-1H-1,2,4-triazol-5-yl)-1H-pyrazolo[3,4-c]pyridazine]
100 to 1000 | CC(=O)Nc1n[nH]c(-c2nn(Cc3ccccc3F)c3ncccc23)n1 [Compound I-103]
< 100 | OC1(c2n[nH]c(-c3nn(Cc4ccccc4F)c4ncccc34)n2)CC1 [Compound I-104, 1-(5-(1-(2-Fluorobenzyl)-1H-pyrazolo[3,4-b]pyridin-3-yl)-1H-1,2,4-triazol-3-yl)cyclopropanol]
< 100 | CC(O)c1n[nH]c(-c2nn(Cc3ccccc3F)c3ncccc23)n1 (stereo not drawn) [Compound I-107, 1-(5-(1-(2-Fluorobenzyl)-1H-pyrazolo[3,4-b]pyridin-3-yl)-1H-1,2,4-triazol-3-yl)ethanol]
100 to 1000 | COCc1n[nH]c(-c2nn(Cc3ccccc3F)c3ncccc23)n1 [Compound I-112, 1-(2-Fluorobenzyl)-3-(3-(methoxymethyl)-1H-1,2,4-triazol-5-yl)-1H-pyrazolo[3,4-b]pyridine]
< 100 | Cc1ncc(Cn2nc(-c3nc(C)n[nH]3)c3cccnc32)cn1 [Compound I-113, 3-(3-Methyl-1H-1,2,4-triazol-5-yl)-1-((2-methylpyrimidin-5yl)methyl)-1H-pyrazolo[3,4-b]pyridine]
100 to 1000 | NCc1n[nH]c(-c2nn(Cc3ccccc3F)c3ncccc23)n1 [Compound I-115, (5-(1-(2-fluorobenzyl)-1H-pyrazolo[3,4-b]pyridin-3-yl)-1H-1,2,4-triazol-3-yl)methanamine]
100 to 1000 | COCCC(O)c1n[nH]c(-c2nn(Cc3ccccc3F)c3ncccc23)n1 (stereo not drawn) [Compound I-116, 1-(5-(1-(2-fluorobenzyl)-1H-pyrazolo[3,4-b]pyridin-3-yl)-1H-1,2,4-triazol-3-yl)-3-methoxypropan-1-ol]
100 to 1000 | C=COCc1n[nH]c(-c2nn(Cc3ccccc3F)c3ncccc23)n1 [Compound I-117]
100 to 1000 | Fc1cccc(Cc2nn(-c3nc(C(F)(F)F)n[nH]3)c3cccnc23)c1 [Compound I-120, 3-(3-Fluorobenzyl)-1-(3-(trifluoromethyl)-1H-1,2,4-triazol-5-yl)-1H-pyrazolo[4,3-b]pyridine]
100 to 1000 | Fc1cc(F)cc(Cc2nn(-c3nc(C(F)(F)F)n[nH]3)c3cccnc23)c1 [Compound I-121, 3-(3,5-Difluorobenzyl)-1-(3-(trifluoromethyl)-1H-1,2,4-triazol-5-yl)-1H-pyrazolo[4,3-b]pyridine]
100 to 1000 | Fc1cccc(Cc2nn(-c3nc(C(F)F)n[nH]3)c3cccnc23)c1 [Compound I-122, 1-(3-(Difluoromethyl)-1H-1,2,4-triazol-5-yl)-3-(3-fluorobenzyl)-1H-pyrazolo[4,3-b]pyridine]
100 to 1000 | Fc1cc(F)cc(Cc2nn(-c3nc(C(F)F)n[nH]3)c3cccnc23)c1 [Compound I-123, 3-(3,5-Difluorobenzyl)-1-(3-(difluoromethyl)-1H-1,2,4-triazol-5-yl)-1H-pyrazolo[4,3-b]pyridine]
100 to 1000 | CC(=O)NCc1n[nH]c(-c2nn(Cc3ccccc3F)c3ncccc23)n1 [Compound I-124, N-((5-(1-(2-fluorobenzyl)-1H-pyrazolo[3,4-b]pyridin-3-yl)-1H-1,2,4-triazol-3-yl)methyl)acetamide]
100 to 1000 | O=C1CCC(=O)N1Cc1n[nH]c(-c2nn(Cc3ccccc3F)c3ncccc23)n1 [Compound I-125, 1-((5-(1-(2-fluorobenzyl)-1H-pyrazolo[3,4-b]pyridin-3-yl)-1H-1,2,4-triazol-3-yl)methyl)pyrrolidine-2,5-dione]
> 1000 | O=C(CC(F)(F)F)Nc1n[nH]c(-c2nn(Cc3ccccc3F)c3ncccc23)n1 [Compound I-126]
100 to 1000 | FC(F)(F)c1n[nH]c(-n2nc(Cc3ccccc3)c3ncccc32)n1 [Compound I-128, 3-Benzyl-1-(3-(trifluoromethyl)-1H-1,2,4-triazol-5-yl)-1H-pyrazolo[4,3-b]pyridine]
